# How the values were obtained:
# IGF-II receptor = test: Equilibrium binding assay, primary cerebellar neuron cultures; format: cell-based, rat
# Procedure: (§1) Fresh frozen tissue (˜100 mg) was homogenized in 5 volumes of NP-40 lysis buffer (50 mM Tris-HCl, pH 7.5, 1% NP-40, 150 mM NaCl, 1 mM EDTA, 2 mM EGTA) containing protease inhibitors (1 mM PMSF, 0.1 mM TPCK, 1 μg/ml aprotinin, 1 μg/ml pepstatin A, 0.5 μg/ml leupeptin, 1 mM NaF, 1 mM Na4P2O7). Protein concentrations were determined using the bicinchoninic acid (BCA) assay (Pierce, Rockford, Ill.). Exploratory studies determined the amounts of protein and concentrations of radiolabeled ligand required to achieve 20% specific binding. Insulin receptor binding assays were performed using 100 μg protein. IGF-I binding assays required 25 μg protein per sample, and IGF-II receptor binding assays were optimized using 10 μg protein. Competitive equilibrium binding assays were used to assess growth factor binding in relation to ethanol exposure. For total binding, duplicate individual protein samples were incubated in 100 μl reactions containing binding buffer (100 mM HEPES, pH 8.0, 118 mM NaCl, 1.2 mM MgSO4, 8.8 mM dextrose, 5 mM KCl, 1% bovine serum albumin) and 100 nCi/ml of [^125I] (2000 Ci/mmol; […]) insulin, IGF-I, or IGF-II. To measure non-specific binding, replicate samples were identically prepared but with the addition of 0.1 μM unlabeled (cold) ligand.
# (§2) All reactions were performed in 1.5 ml Eppendorff tubes, and the incubations were performed at 4° C. for 16 hours with gentle platform agitation. Bound radiolabeled tracer was then precipitated by adding 500 μl of 0.15% bovine gamma globulin (prepared in 100 mM Tris-HCl, pH 8.0) followed by 400 μl 37.5% polyethylene glycol 8000 (PEG-8000; prepared in 100 mM Tris-HCl, pH 8.0) to each tube. The samples were thoroughly mixed by vortexing, and then incubated on ice for at least 2 hours. The precipitates were collected by centrifuging the samples at 15,000×g for 5 minutes at room temperature. The supernatant fraction, which contained unbound (free) ligand, was transferred in its entirety to a Gamma counting tube (Sarstedt, Newton, N.C.). The Eppendorff tube tip containing the pellet was cut and released directly into a separate Gamma counting tube. The samples were counted for 1 minute in an LKB CompuGamma CS Gamma counter. Specific binding was calculated by subtracting fmol of non-specific binding, i.e., amount bound in the presence of cold ligand, from the total fmol bound (absence of unlabeled competitive ligand). The results were analyzed and plotted using the GraphPad Prism 4 software (GraphPad Software, Inc., San Diego, Calif.).
# (§3) In vitro experiments were used to examine the effects of ethanol on receptor binding and choline acetyltransferase (ChAT) and acetylcholinesterase (AChE) expression in cerebellar neurons. Primary neuronal cultures were generated with postnatal day 8 rat pup cerebellar tissue (Nikolic et al. Genes Dev. 10:816 (1996)). The cultures were maintained with Dulbecco's modified Eagle's medium (DMEM) supplemented with 5% fetal calf serum, 4 mM glutamine, 100 μM non-essential amino acid mixture (Gibco-BRL, Grand Island, N.Y.), 25 mM KCl, and 9 g/L glucose. […] Alcohol Clin. Exp. Res. 24:716 (2000); Banerjee et al. Alcohol Clin. Exp. Res. 22:2093 (1998)). Control cultures were identically treated but with water added to the reservoir tray. The chambers were flushed with gas containing 75% nitrogen, 20% oxygen, and 5% carbon dioxide. […] Alternatively, the cells were serum-starved for 12 hours and then stimulated with 10 nM insulin, […], 25 nM IGF-II, or vehicle for 16 hours, and RNA was harvested to measure ChAT and AChE expression.
# insulin receptor = test: as above; format: cell-based, rat
# Procedure: as §1, §2, §3
# [1] = 50 mM ethanol for 96 hours vs control cultures
# [2] = 10 mM for 3 hours, control and ethanol-exposed cultures, relative to vehicle-treated cells
compound,measurement,setting,value
CC(C)CCC[C@@H](C)[C@H]1CC[C@H]2[C@@H]3CC=C4C[C@@H](O)CC[C@]4(C)[C@H]3CC[C@]12C [cholesterol],IGF-II receptor binding,"IGF-II receptor; 10 mM for 3 hours, control cerebellar neurons",significantly impaired
same,insulin receptor binding,"insulin receptor; 10 mM for 3 hours, control cells",no significant effect
same,insulin-receptor binding,"insulin receptor; 10 mM for 3 hours, ethanol-treated cells",enhanced
CCO [ethanol],IGF-II receptor binding,IGF-II receptor; [1],significantly reduced
same,insulin receptor binding,insulin receptor; [1],significantly reduced
Methyl-β-cyclodextrin [MβCD],IGF-II receptor binding,IGF-II receptor; [2],significantly inhibited
same,insulin receptor binding,insulin receptor; [2],significantly inhibited
